This is an account of results in US4239778A, “Azaprostanoic acid analogs and their use as inhibitors of platelet aggregation” (priority 1978, dated 1980).

The subject of data set [1] is thromboxane synthetase. As to the kind of experiment: TXB2 formation in response to added PGH2 in indomethacin-treated resuspended platelets (thromboxane synthetase). It counts as cell-based. The protocol:
This possibility was examined by measuring the effect of 13-APA on TXB2 formation in response to added PGH2 (0.13 μg/ml). Platelets were isolated from EDTA-treated ([…]) PRP by centrifugation at 800 xg for 15 minutes. The platelet pellet was resuspended by gentle swirling in calcium-free Tyrode buffer (pH 7.4). […] Moreover, if it is assumed that TXA2 is the final mediator involved in prostaglandin activation, 13-APA must act to block the interaction of TXA2 with the platelet receptor.

Data set [2] relates to platelet receptor. As to the kind of experiment: Platelet aggregation induced by direct agonist 9-epoxy CEE. The settings on record: 3 μM 9-epoxy CEE. It counts as cell-based. The text has this:
Such inhibitory activity has not been previously reported for any compound which selectively blocks AA-induced aggregation.

For data set [3], the system named is mice. As to the kind of experiment: Observation of mice after 30 mg/kg 13-APA. The settings on record: months after dose. It counts as in vivo, mouse. Here is the method:
(§1) Swiss Webster mice (25 gm) maintained on a Purina diet were injected intraperitoneally with either 0.1 ml corn oil or 0.1 ml corn oil containing 13-azaprostanoic acid (13-APA) of Example 5. The dose of 13-APA employed was 30 mg/kg. One hour subsequent to injection, 0.05 ml of a sodium arachidonate solution was administered by rapid I.V. through the tail vein to both control and drug-treated mice. The arachidonate was dissolved in 90% saline and 10% ethanol (95%).

Data set [4] concerns Swiss Webster mice. It counts as in vivo, mouse. To be noted: 30 mg/kg i.p. Here is the method: as §1
The subject of data set [5] is platelet rich plasma. Nature of the data set: Platelet aggregation with 500 μM arachidonic acid (Table IV). It counts as cell-based. The protocol:
(§2) Platelet rich plasma was aggregated with 500 μM arachidonic acid and three minutes following arachidonate addition, aliquots of the plasma were drawn for TXB2 determinations.

Data set [6] relates to platelets. As to the kind of experiment: PGH2-induced platelet aggregation (Table V). It counts as cell-based.
Data set [7] has as its system platelet conversion of AA to thromboxane B2 (TXB2). As to the kind of experiment: TXB2 formation in platelet rich plasma aggregated with arachidonic acid (radioimmunoassay). It counts as cell-based. Here is the method:
as §2

For data set [8] the following is noted: in vivo; cited from earlier work.
The test system of data set [9] is cyclooxygenase. The settings on record: cited from earlier work.
For data set [10], the system named is thromboxane synthetase. The settings on record: cited from earlier work.
Data set [11] relates to PGE2. The settings on record: cited from earlier work.
The test system of data set [12] is prostacyclin synthetase. The settings on record: cited from earlier work.
For data set [13], the system named is platelet aggregation. The settings on record: cited from earlier work.
Data set [14] relates to platelet cAMP levels. The settings on record: cited from earlier work.
Where [15] appears, read: 1 h before I.V. arachidonate (100 mg/kg), number of mice of 4.
[16] abbreviates: AA 500 μM + imidazole 100 μg/ml.
Where [17] appears, read: AA 500 μM + imidazole 200 μg/ml.

Structures are written as SMILES. Entries after “also recorded” stand apart in the source; their conditions may differ. Where two headings read alike, the source gives them in different places.

Turning to `CCCCCCCN[C@H]1CCC[C@@H]1CCCCCCC(=O)O` [Example 13-APA, 13-azaprostanoic acid], the “platelet production of TXB2 (in words)” value in data set [1] (13-APA 100 μM) was “no effect on platelet production of TXB2”. For the same compound, the TXB2 is 50 ± 2 ng/mL in data set [1] (PGH2 […] + 13-APA 10 μM); 44 ± 2 ng/mL in data set [1] (PGH2 […] + 13-APA 50 μM); 40 ± 2 ng/mL in [1] (PGH2 […] + 13-APA 100 μM); 1164 ± 25 ng/mL in data set [7] (AA 500 μM + 13-APA 10 μM); 750 ± 19 ng/mL in data set [7] (AA 500 μM + 13-APA 50 μM). Moreover, the “inhibition of aggregation induced by 9-epoxy CEE (in words)” value in data set [2] (13-APA 100 μM) was “completely inhibited”. In addition, the inhibition at 10 µM in [2] (Platelet, 13-APA 10 μM) is ~60%. In data set [3], the “ill effects / toxicity (in words)” value is reported as “no ill effects are evident”. In data set [4] (setting [15]), this compound came in with a Death of 0. Moreover, the “Severe Respiratory Distress” value in data set [4] (setting [15]) came out at 0. Also, in data set [4] (arachidonate 100 mg/kg I.V.), the “symptoms of thromboembolism (in words)” value is “none of the symptoms of thromboembolism”. Besides, in [5] (13-APA 50 μM), the “inhibition of aggregation (in words)” value is “completely inhibits aggregation”. Besides, the “% Aggregation” value in data set [5] (AA 500 μM + 13-APA 10 μM) came to 80%; in [5] (AA 500 μM + 13-APA 50 μM), 0%; in data set [6] (PGH2 […] + 13-APA 10 μM), 0%; in [6] (PGH2 […] + 13-APA 50 μM) it was 0%; in data set [6] (PGH2 […] + 13-APA 100 μM) it was 0%. Besides, the “inhibition of PGH2-induced aggregation (in words)” value in [6] (13-APA 10 μM) is on record as “completely effective in inhibiting PGH2 -induced aggregation”. The inhibition at 50 µM in data set [7] (Platelet, 0.05 h, 13-APA 50 μM, read-out: decrease of TXB2 formation) came out at 36%.

As for `CC(=O)Oc1ccccc1C(=O)O` [aspirin], the “bleeding times (in words)” value in data set [8] was “prolong bleeding times”. The “inhibition of prostaglandin biosynthesis / cyclooxygenase (in words)” value in data set [9] is recorded as “inhibit prostaglandin biosynthesis by blocking the conversion of substrate fatty acids to endoperoxides”.

As for `CCCCCC/C=C/C1C2CC(N=N2)C1C/C=C\CCCC(=O)O` (centres unmarked) [azo prostanoic acid analog], the “inhibition of thromboxane synthetase (in words)” value is on record as “potent inhibitor of thromboxane synthetase” in [10] and “competitive inhibitor of PGH2 binding to the thromboxane synthetase enzyme; also recorded: selectively inhibit thromboxane synthetase in a concentration dependent fashion” in data set [10] (listed as azo analog). Moreover, the “PGE2 formation (in words)” value in data set [11] was “increase in PGE2”. In data set [9], the “inhibition of prostaglandin biosynthesis / cyclooxygenase (in words)” value is recorded as “cyclooxygenase enzyme was not affected”. Besides, the “inhibition of prostacyclin synthetase (in words)” value in [12] was “inhibitory activity may also extend to prostacyclin synthetase”. The “effect on platelet aggregation (in words)” value in data set [13] is “inhibitor of platelet aggregation induced by PGH2, arachidonic acid, or collagen, and of the second wave of ADP or epinephrine-induced aggregation”; in [13] (listed as azo analog) it was “suppressed the attendant aggregation induced by arachidonate in a parallel, concentration-dependent fashion”.

On to `c1c[nH]cn1` [imidazole], for which the TXB2 in data set [1] (PGH2 […] + imidazole 20 μg/ml) is 26 ± 1 ng/mL; in data set [1] (PGH2 […] + imidazole 100 μg/ml), 6 ± 1 ng/mL; in data set [1] (PGH2 […] + imidazole 200 μg/ml) it was 3 ± 1 ng/mL; in data set [7] (AA 500 μM + imidazole 20 μg/ml) it was 669 ± 33 ng/mL; in data set [7] (setting [16]), 264 ± 7 ng/mL; in [7] (setting [17]), 138 ± 8 ng/mL. For the same compound, the “thromboxane synthetase inhibition (in words)” value in data set [1] (imidazole 20-200 μg/ml) was “blocks thromboxane synthetase in a dose dependent manner”. For the same compound, in data set [10], the “concentration necessary to achieve inhibition of thromboxane synthetase” value was 2 mM. Further, the “inhibition of thromboxane synthetase (in words)” value is “selectively inhibit thromboxane synthetase in a concentration dependent fashion” in [10] and “selectively inhibits thromboxane synthetase” in data set [10] (listed as Imidazole). Further, the “changes in platelet cAMP levels (in words)” value in [14] is “without inducing changes in platelet cAMP levels”. In addition, the “effect on platelet aggregation (in words)” value in [13] is “erratic; also recorded: potentiate aggregation in washed platelets”. Further, the “% Aggregation” value in data set [5] (AA 500 μM + imidazole 20 μg/ml) is given as 21%; in [5] (setting [16]) it was 11%; in data set [5] (setting [17]) it was 5%; in data set [6] (PGH2 […] + imidazole 20 μg/ml), 30%; in [6] (PGH2 […] + imidazole 100 μg/ml), 50%; in data set [6] (PGH2 […] + imidazole 200 μg/ml), 60%. The inhibition at 20 µg/mL in data set [5] (Platelet, read-out: inhibition of aggregation) is ~75%. In addition, in data set [7] (imidazole 200 μg/ml), the “TXB2 formation (in words)” value is recorded as “substantial depression of TXB2 formation”. The “TXB2 levels versus control (in words)” value in data set [7] (imidazole decreased from 200 μg/ml to 20 μg/ml) is listed as “significantly lower than control”.
